pIC50: −log10 of the molar value.
Target: HPK1 (Homo sapiens (Human), UniProt Q92918)
Test: HPK1 biochemical enzyme assay (microfluidic mobility shift assay)
Conditions: 1 mM ATP; 1.5 nM HPK1; 30 min preincubation, 60 min reaction; Caliper EZ Reader; read-out: HPK1 1000UMATP caliper IC50
Description: HPK1 biochemical enzyme assay: HPK1 enzyme inhibition was measured using a microfluidic mobility shift assay. […] Test compounds were titrated in ten point curves (top final assay concentration 3 μM), and preincubated with enzyme/substrate mix for 30 min prior to initiation of the reaction by addition of ATP (1 mM final concentration) and substrate (1 μM final concentration; Carna Biosciences) diluted in assay buffer supplemented by MgCl2 (final assay concentration of 5 mM). Following 60 min incubation at RT, the reaction was terminated by addition of 60 μl/well termination buffer (Carna Biosciences) and signal determination using a Caliper EZ Reader (Perkin Elmer, UK).

Chain of HPK1 (Q92918 whole entry): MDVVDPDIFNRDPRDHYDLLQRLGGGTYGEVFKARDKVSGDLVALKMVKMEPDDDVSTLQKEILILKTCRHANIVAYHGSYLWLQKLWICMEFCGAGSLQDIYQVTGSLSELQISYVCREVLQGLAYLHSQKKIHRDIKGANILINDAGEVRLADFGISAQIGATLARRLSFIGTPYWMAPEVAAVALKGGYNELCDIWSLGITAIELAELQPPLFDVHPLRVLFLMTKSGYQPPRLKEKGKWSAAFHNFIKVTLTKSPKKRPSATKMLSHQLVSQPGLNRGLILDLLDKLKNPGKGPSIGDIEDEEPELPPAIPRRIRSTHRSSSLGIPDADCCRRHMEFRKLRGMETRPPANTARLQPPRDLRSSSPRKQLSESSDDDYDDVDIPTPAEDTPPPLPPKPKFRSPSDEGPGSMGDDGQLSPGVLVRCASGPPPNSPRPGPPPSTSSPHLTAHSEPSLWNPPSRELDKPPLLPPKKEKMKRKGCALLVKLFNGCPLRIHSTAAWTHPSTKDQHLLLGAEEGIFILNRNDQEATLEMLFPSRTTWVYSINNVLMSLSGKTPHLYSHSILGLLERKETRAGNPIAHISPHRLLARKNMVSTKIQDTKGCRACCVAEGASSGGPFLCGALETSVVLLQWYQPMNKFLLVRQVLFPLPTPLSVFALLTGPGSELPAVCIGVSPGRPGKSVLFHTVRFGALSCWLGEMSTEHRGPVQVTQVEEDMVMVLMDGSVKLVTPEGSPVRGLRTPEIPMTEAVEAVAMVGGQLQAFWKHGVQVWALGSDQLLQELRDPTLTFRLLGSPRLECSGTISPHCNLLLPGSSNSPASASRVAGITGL

pIC50: > 7.00
Structure (SMILES): O=C1NCc2c(-c3cnc4cc(F)ccn34)ccc(Nc3ccc(N4CC5CCC(C4)C5O)cn3)c21 (stereo not shown) [I-405, 4-(7-fluoroimidazo [1,2-a]pyridin-3-yl)-7-((5-(8-hydroxy-3-azabicyclo [3.2.1]octan-3-yl)pyridin-2-yl)amino)isoin-dolin-1-one]
